Laboratory results: ChEMBL document CHEMBL5696442, “Discovery of type II inhibitors of TGFβ-activated kinase 1 (TAK1) and mitogen-activated protein kinase kinase kinase kinase 2 (MAP4K2)” (J Med Chem, 2015)

Tests used:
[1] = molecular target: Fibroblast growth factor receptor 4 (Homo sapiens) (UniProt P22455); assay: Inhibition of FGFR4 (unknown origin) at 10 uM by Ambit Kinomescan binding assay relative to control
[2] = molecular target: T1, Mitogen-activated protein kinase kinase kinase 5 (Homo sapiens) (UniProt Q99683); assay: Inhibition of MAP3K5 Lys1 labeling site harbouring IAIKEIPERDSR in human A-375 cells at 5 uM by KiNativ Profiling analysis relative to control; format: cell-based
T1 sequence (whole entry): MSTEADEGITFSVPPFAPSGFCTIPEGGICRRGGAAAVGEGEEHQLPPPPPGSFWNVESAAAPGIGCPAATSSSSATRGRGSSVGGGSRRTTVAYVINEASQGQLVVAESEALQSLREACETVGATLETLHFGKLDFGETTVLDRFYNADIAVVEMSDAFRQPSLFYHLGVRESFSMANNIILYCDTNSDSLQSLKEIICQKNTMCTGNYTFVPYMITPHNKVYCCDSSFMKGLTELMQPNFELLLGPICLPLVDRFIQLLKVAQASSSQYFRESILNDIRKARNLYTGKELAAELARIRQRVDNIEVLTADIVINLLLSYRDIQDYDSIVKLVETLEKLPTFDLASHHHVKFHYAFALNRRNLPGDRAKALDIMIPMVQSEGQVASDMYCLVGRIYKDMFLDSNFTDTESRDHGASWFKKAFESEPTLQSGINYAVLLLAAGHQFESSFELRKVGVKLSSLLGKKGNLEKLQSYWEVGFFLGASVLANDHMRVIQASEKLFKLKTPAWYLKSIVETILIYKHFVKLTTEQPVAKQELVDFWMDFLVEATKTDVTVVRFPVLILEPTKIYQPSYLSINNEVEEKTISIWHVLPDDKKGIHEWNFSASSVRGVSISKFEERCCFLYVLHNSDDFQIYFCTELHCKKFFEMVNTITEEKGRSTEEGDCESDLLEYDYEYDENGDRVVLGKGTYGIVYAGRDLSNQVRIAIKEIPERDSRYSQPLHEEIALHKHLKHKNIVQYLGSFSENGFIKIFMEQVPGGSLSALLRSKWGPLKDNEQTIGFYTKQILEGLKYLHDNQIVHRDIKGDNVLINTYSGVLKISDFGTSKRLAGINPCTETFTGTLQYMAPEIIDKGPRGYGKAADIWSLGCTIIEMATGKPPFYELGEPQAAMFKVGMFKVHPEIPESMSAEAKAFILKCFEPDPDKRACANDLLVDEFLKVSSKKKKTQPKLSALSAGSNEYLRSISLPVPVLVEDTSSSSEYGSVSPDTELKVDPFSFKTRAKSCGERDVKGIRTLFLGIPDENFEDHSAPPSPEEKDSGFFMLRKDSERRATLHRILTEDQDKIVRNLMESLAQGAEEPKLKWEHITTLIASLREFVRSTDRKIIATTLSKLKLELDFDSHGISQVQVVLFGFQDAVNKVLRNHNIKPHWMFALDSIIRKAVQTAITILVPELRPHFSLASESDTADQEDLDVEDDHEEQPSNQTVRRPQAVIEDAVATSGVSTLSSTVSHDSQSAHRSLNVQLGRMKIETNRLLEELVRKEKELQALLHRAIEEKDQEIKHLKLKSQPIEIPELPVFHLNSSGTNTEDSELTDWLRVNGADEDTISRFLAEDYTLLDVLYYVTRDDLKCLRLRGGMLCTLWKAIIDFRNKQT

[3] = molecular target: Tyrosine-protein kinase Fer (Homo sapiens, UniProt P16591); assay: Inhibition of FER Lys1 labeling site harbouring DKTSVAVKTCKEDLPQELK in human A-375 cells at 0.05 uM by KiNativ Profiling analysis relative to control; format: cell-based
[4] = molecular target: T2, Dual specificity mitogen-activated protein kinase kinase 6 (Homo sapiens) (UniProt P52564); assay: Inhibition of MAP2K6 K2 labeling site in human Huh-7 cells at 1 uM by KiNativ Profiling analysis relative to control; format: cell-based
T2 sequence (whole entry): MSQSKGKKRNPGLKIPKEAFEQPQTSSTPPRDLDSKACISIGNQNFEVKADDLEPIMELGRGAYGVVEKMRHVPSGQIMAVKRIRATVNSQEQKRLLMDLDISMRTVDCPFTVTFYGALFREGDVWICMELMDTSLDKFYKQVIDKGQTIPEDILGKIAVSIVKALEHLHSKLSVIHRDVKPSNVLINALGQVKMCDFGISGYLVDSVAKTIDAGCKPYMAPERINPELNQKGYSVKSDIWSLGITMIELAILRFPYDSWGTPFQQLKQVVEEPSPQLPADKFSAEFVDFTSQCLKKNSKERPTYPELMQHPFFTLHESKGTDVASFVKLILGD

[5] = molecular target: MAP/microtubule affinity-regulating kinase 3 (Homo sapiens) (UniProt P27448); assay: Inhibition of MARK3 K1 labeling site in human Huh-7 cells at 1 uM by KiNativ Profiling analysis relative to control; format: cell-based
[6] = molecular target: Ribosomal protein S6 kinase alpha-1 (Homo sapiens) (UniProt Q15418); assay: Inhibition of RSK1 domain2 Lys2 labeling site in human A-375 cells at 0.05 uM by KiNativ Profiling analysis relative to control; format: cell-based
[7] = molecular target: Serine/threonine-protein kinase/endoribonuclease IRE1 (Homo sapiens) (UniProt O75460); assay: Inhibition of ERN1 (unknown origin) at 1 uM by Ambit Kinomescan binding assay relative to control; values are per cent of control
[8] = molecular target: Cyclin-dependent kinase 10 (Homo sapiens) (UniProt Q15131); assay: Inhibition of CDK10 Lys2 labeling site in human Huh-7 cell lysate at 1 uM by KiNativ Profiling analysis relative to control; format: subcellular
[9] = molecular target: T3, Phosphatidylinositol 5-phosphate 4-kinase type-2 gamma (Homo sapiens) (UniProt Q8TBX8); assay: Inhibition of PIP4K2C ATP labeling site harbouring VKELPTLKDMDFLNK in human Huh-7 cell lysate at 1 uM by KiNativ Profiling analysis relative to control; format: subcellular
T3 sequence (whole entry): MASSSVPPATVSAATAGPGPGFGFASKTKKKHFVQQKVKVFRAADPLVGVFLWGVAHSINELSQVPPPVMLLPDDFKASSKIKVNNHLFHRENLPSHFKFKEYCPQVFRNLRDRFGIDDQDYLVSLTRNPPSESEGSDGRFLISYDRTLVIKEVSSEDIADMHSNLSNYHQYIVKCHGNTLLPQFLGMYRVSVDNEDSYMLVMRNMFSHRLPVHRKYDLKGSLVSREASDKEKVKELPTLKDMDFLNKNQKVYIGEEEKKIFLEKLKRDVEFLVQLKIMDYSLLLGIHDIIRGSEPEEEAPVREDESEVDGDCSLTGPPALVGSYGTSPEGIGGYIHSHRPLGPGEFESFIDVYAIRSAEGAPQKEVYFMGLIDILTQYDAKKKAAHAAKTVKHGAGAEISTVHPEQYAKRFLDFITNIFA

[10] = molecular target: Serine/threonine-protein kinase 24 (Homo sapiens) (UniProt Q9Y6E0); assay: Inhibition of MST3 Lys2 labeling site harbouring IHRDIKAANVLLSEHGEVK in human Huh-7 cells at 1 uM by KiNativ Profiling analysis relative to control; format: cell-based
Serine/threonine-protein kinase 24 (Homo sapiens), sequence (Q9Y6E0 whole entry, looked up): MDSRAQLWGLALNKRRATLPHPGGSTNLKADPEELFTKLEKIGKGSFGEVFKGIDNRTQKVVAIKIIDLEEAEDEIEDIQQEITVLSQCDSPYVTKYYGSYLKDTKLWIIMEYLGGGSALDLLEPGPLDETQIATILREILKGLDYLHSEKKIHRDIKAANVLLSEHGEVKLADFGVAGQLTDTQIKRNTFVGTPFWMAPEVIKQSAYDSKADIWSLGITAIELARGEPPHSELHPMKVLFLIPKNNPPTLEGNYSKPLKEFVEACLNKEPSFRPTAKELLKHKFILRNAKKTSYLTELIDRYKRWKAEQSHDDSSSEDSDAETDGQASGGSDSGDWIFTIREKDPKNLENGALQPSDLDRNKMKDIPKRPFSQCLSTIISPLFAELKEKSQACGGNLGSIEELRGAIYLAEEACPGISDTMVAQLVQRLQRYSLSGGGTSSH

Serine/threonine-protein kinase/endoribonuclease IRE1 (Homo sapiens), sequence (O75460 19-977 limits assumed): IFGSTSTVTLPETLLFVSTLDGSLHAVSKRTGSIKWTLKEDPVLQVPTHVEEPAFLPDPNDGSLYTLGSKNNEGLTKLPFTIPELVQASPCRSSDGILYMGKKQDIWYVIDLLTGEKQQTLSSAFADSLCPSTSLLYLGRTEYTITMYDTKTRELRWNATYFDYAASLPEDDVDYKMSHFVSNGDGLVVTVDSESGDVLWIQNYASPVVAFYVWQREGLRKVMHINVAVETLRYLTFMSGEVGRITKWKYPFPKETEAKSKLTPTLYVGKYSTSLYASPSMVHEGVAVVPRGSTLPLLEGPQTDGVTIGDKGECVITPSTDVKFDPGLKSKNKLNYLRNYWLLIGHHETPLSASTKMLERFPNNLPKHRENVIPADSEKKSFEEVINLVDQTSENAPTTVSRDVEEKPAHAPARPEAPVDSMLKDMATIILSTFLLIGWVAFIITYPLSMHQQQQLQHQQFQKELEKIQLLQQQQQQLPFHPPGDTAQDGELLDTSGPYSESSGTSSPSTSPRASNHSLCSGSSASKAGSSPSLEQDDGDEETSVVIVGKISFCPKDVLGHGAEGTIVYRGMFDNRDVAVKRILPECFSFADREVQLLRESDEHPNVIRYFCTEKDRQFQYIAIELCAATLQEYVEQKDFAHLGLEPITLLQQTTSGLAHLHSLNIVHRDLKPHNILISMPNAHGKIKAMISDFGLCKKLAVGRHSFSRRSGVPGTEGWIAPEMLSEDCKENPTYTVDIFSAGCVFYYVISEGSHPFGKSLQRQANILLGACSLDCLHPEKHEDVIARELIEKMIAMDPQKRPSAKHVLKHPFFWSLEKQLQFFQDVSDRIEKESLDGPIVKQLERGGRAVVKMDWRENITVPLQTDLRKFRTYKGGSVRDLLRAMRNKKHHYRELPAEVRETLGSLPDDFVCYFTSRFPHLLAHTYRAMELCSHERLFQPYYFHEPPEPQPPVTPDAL
Cyclin-dependent kinase 10 (Homo sapiens), sequence (Q15131 whole entry): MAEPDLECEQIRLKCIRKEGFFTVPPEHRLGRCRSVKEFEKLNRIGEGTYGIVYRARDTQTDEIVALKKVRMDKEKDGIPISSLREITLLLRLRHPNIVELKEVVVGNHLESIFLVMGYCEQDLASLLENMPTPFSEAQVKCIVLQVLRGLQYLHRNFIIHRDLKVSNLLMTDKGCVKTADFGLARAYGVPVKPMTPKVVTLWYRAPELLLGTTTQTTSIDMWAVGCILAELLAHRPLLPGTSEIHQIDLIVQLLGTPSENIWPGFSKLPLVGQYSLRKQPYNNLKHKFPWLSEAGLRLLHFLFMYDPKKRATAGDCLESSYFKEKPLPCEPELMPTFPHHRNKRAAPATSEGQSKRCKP
Tyrosine-protein kinase Fer, sequence (P16591 whole entry, looked up): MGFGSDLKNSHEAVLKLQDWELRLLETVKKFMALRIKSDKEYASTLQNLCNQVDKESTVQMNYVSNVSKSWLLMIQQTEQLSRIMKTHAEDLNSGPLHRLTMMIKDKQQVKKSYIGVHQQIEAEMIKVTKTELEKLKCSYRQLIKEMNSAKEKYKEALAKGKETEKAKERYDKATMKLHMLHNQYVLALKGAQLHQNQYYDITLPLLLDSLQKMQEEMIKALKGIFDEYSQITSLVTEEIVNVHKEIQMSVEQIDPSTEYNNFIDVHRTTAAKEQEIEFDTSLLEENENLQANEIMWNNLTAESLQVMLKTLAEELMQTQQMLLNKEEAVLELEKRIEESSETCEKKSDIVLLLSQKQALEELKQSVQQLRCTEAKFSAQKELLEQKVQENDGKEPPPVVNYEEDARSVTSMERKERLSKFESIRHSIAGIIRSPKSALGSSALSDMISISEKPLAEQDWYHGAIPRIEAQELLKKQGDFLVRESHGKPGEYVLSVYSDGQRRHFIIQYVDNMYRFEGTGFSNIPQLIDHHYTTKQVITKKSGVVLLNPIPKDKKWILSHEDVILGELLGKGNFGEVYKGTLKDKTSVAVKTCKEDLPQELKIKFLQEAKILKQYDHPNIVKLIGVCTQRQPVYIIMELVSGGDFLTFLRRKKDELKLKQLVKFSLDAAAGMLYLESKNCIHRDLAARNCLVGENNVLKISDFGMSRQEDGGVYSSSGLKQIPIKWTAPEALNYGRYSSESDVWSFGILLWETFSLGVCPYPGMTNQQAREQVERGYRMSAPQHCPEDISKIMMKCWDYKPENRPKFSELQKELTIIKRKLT
MAP/microtubule affinity-regulating kinase 3 (Homo sapiens), sequence (P27448 whole entry, looked up, the tested form may be a part): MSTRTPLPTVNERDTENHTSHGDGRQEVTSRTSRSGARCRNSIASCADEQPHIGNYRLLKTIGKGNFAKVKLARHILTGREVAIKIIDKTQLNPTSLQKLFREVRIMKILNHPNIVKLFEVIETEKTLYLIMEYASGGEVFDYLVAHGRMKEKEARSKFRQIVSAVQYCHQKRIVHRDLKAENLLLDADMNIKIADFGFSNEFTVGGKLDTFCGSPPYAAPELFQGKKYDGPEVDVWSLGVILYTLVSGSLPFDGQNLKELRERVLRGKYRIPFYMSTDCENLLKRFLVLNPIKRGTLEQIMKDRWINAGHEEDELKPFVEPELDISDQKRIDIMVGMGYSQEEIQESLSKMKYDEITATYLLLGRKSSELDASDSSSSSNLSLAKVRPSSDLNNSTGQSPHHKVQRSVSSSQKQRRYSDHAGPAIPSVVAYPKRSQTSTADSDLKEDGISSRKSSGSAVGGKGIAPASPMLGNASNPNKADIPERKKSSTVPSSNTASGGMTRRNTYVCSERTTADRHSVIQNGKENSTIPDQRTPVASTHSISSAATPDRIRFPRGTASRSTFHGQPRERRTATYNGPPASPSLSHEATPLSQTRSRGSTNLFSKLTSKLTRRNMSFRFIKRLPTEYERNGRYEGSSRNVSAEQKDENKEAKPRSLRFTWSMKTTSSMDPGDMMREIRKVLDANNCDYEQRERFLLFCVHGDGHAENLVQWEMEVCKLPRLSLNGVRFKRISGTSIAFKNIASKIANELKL
Ribosomal protein S6 kinase alpha-1 (Homo sapiens), sequence (Q15418 whole entry, the tested form may be a part): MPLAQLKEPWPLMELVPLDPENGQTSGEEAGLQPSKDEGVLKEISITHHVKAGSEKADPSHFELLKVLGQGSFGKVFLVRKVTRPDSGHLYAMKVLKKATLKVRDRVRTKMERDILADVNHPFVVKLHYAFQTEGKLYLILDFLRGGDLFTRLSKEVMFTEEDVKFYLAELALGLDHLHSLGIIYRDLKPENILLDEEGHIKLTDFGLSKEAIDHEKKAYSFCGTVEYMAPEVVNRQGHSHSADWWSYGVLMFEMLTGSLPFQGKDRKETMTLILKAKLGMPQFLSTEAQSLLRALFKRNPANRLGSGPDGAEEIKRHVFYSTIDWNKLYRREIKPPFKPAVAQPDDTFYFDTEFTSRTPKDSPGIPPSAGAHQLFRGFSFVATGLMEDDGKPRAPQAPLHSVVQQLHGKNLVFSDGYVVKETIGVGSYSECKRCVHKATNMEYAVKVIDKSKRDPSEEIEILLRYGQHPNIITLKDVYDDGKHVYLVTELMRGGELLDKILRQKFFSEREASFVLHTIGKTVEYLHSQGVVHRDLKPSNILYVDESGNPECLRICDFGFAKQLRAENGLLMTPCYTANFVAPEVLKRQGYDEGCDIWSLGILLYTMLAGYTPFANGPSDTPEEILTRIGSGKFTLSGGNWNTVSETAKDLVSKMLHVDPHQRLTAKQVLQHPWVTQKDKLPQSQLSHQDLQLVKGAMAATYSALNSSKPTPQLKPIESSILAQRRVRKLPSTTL
Fibroblast growth factor receptor 4 (Homo sapiens), sequence (P22455 22-802 limits assumed): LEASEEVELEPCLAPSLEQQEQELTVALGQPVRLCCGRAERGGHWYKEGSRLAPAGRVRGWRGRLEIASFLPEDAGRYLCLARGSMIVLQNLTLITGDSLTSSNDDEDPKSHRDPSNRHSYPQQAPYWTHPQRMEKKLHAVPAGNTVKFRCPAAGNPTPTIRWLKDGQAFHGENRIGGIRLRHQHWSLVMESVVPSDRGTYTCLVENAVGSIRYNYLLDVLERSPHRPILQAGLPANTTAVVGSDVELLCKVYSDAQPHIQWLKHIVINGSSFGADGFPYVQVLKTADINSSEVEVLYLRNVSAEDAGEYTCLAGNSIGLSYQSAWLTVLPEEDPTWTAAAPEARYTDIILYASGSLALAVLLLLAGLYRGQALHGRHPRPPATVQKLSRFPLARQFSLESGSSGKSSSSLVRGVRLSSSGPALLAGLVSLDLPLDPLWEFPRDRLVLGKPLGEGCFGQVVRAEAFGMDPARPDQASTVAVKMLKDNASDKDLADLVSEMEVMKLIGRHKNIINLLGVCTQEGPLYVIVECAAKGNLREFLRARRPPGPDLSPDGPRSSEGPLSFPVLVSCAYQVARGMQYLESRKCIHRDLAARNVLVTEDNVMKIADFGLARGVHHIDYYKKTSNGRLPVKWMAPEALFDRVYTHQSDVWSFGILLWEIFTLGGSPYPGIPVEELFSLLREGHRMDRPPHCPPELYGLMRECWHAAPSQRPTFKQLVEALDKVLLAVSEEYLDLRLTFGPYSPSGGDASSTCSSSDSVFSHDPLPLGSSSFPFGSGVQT

## CCN1CCN(Cc2ccc(NC(=O)c3ccc(C)c(Oc4ccnc5[nH]ccc45)c3)cc2C(F)(F)F)CC1
[1]
  inhibition: 0.45%
[2]
  inhibition: -3.2%
[3]
  inhibition: 62.8%
[4]
  inhibition: -7.1%
[5]
  inhibition: 5%

## CCN1CCN(Cc2ccc(NC(=O)c3ccc(C)c(/C=C/c4cnc5[nH]ccc5c4OC)c3)cc2C(F)(F)F)CC1
[6]
  inhibition: 4%
[7]
  residual activity: 100%

## CNc1cc(Oc2cc(C(=O)Nc3cc(N4CCN(C)CC4)cc(C(F)(F)F)c3)ccc2C)ncn1
[8]
  inhibition: 2.7%
[9]
  inhibition: 11.6%
[10]
  inhibition: 5%
